In US20120214847A1, “2-[1-PHENYL-5-HYDROXY-4a-SUBSTITUTED-HEXAHYDROCYCLOPENTA[F]INDAZOL-5-YL]ETHYL PHENYL DERIVATIVES AS GLUCOCORTICOID RECEPTOR LIGANDS” (Merck Sharp & Dohme Corp., priority 2009, published 2012):
pEC50: −log10 of the molar value.

Biological target: T1, human GR (Homo sapiens, UniProt P04150)
T1 construct: naturally expresses the human GR; endogenous in cells
T1 sequence (P04150 1-777): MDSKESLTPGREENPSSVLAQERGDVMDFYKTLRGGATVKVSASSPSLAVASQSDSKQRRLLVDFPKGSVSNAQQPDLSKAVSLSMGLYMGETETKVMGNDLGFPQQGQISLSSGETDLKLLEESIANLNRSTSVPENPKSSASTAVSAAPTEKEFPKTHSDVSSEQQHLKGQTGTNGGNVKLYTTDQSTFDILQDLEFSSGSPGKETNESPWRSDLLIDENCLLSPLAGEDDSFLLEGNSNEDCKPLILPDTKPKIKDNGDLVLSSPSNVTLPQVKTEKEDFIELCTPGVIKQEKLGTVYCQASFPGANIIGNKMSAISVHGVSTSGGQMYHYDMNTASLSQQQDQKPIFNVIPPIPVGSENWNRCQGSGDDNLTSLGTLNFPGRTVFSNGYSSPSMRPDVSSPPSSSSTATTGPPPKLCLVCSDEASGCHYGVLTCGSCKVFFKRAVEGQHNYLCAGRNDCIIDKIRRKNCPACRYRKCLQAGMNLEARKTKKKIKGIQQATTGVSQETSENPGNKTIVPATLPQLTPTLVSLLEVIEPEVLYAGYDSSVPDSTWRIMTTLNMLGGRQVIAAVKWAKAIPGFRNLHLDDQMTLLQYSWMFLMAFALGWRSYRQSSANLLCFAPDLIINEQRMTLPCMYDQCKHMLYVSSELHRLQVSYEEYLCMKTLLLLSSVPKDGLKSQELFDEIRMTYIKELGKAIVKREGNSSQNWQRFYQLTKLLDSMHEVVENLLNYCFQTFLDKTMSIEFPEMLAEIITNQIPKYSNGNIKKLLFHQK
Experiment: Transrepression assay (GITAR), TNFα-β-lactamase reporter in U937 cells
Format: cell-based
Details: for pEC50: IP = inflection point; for Emax: U-937, U937 cells
In short: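 U937 cells stably carrying TNFα promoter–β-lactamase, endogenous GR, preincubated with compound 30–45 min at 37° C., then stimulated with 5 ng/ml PMA plus 100 ng/ml LPS for ~18 h. CCF2-AM read-out; repression by 100 nM dexamethasone set as 100%.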

[1] = activity repressed by 100 nM dexamethasone alone set as 100%

Compound | pEC50 (U937 cells) | Emax [1] | Transrepression U937 Cells GITAR Emax (%) (U937 cells, activity repressed by 100 nM dexamethasone alone set as 100%)
COc1cccc(CC[C@]2(O)CCC3=Cc4c(cnn4-c4ccc(F)cc4)C[C@@]32C2CC2)c1C(N)=O [Example 38, 2-{2-[(4aR,5R)-4a-Cyclopropyl-1-(4-fluorophenyl)-5-hydroxy-1,4,4a,5,6,7-hexahydrocyclopenta[f]indazol-5-yl]ethyl}-6-methoxybenzamide] | 7.96 | 74% | 
NC(=O)c1c(C2CC2)ccnc1CC[C@]1(O)CCC2=Cc3c(cnn3-c3ccc(F)cc3)C[C@@]21C1CC1 [Example 49, 4-Cyclopropyl-2-{2-[(4aR,5R)-4a-cyclopropyl-1-(4-fluorophenyl)-5-hydroxy-1,4,4a,5,6,7-hexahydrocyclopenta[f]indazol-5-yl]ethyl}pyridine-3-carboxamide] | 7.92 | 78% | 
CC[C@]12Cc3cnn(-c4ccc(F)cc4)c3C=C1CC[C@@]2(O)CCc1ncc(F)cc1C(N)=O [Example 53, 2-{2-[(4aS,5R)-4a-Ethyl-1-(4-fluorophenyl)-5-hydroxy-1,4,4a,5,6,7-hexahydrocyclopenta[f]indazol-5-yl]ethyl}-5-fluoropyridine-3-carboxamide] | 7.12 | 86% | 
CC[C@]12Cc3cnn(-c4ccc(F)cc4)c3C=C1CC[C@@]2(O)CCc1cncc(F)c1 [Example 21, (4aS,5R)-4a-Ethyl-1-(4-fluorophenyl)-5-[2-(5-fluoropyridin-3-yl)ethyl]-1,4,4a,5,6,7-hexahydrocyclopenta[f]indazol-5-ol] | 7.02 | 87% | 
CC[C@]12Cc3cnn(-c4cccnc4)c3C=C1CC[C@@]2(O)CCc1cccc(F)c1C(N)=O [Example 14, 2-{2-[(4aS,5R)-4a-Ethyl-5-hydroxy-1-(pyridin-3-yl)-1,4,4a,5,6,7-hexahydrocyclopenta[f]indazol-5-yl]ethyl}-6-fluorobenzamide] | 7.37 | 88% | 
CC[C@]12Cc3cnn(-c4ccc(F)cc4)c3C=C1CC[C@@]2(O)CC(O)c1ccccn1 (stereo partly drawn) [Example 68, (4aS,5R)-4a-Ethyl-1-(4-fluorophenyl)-5-[2-hydroxy-2-(pyridin-2-yl)ethyl]-1,4,4a,5,6,7-hexahydrocyclopenta[f]indazol-5-ol] | 7.74 | 71% | 
CC[C@]12Cc3cnn(-c4ccc(F)cc4)c3C=C1CC[C@@]2(O)CCc1ccccn1 [Example 16, (4aS,5R)-4a-Ethyl-1-(4-fluorophenyl)-5-[2-(pyridin-2-yl)ethyl]-1,4,4a,5,6,7-hexahydrocyclopenta[f]indazol-5-ol] | 7.03 | 79% | 
CC[C@]12Cc3cnn(-c4ccc(F)cc4)c3C=C1CC[C@@]2(O)CCc1ccccc1C(O)C(N)=O (stereo partly drawn) [Example 26, 2-(2-{2-[(4aS,5R)-4a-Ethyl-1-(4-fluorophenyl)-5-hydroxy-1,4,4a,5,6,7-hexahydrocyclopenta[f]indazol-5-yl]ethyl}phenyl)-2-hydroxyacetamide] | 7.29 |  | 86%
O[C@@]1(CCc2cc(C(F)(F)F)ccn2)CCC2=Cc3c(cnn3-c3ccc(F)cc3)C[C@@]21C1CC1 [Example 32, (4aR,5R)-4a-Cyclopropyl-1-(4-fluorophenyl)-5-{2-[4-(trifluoromethyl)pyridin-2-yl]ethyl}-1,4,4a,5,6,7-hexahydrocyclopenta[f]indazol-5-ol] | 6.58 | 83% | 
O=C(NC1(CO)CC1)c1ccccc1CC[C@]1(O)CCC2=Cc3c(cnn3-c3ccc(F)cc3)C[C@@]21C1CC1 [Example 46, 2-{2-[(4aR,5R)-4a-Cyclopropyl-1-(4-fluorophenyl)-5-hydroxy-1,4,4a,5,6,7-hexahydrocyclopenta[f]indazol-5-yl]ethyl}-N-[1-(hydroxymethyl)cyclopropyl]benzamide] | 8.15 | 90% | 
CC[C@]12Cc3cnn(-c4ccc(F)cc4)c3C=C1CC[C@@]2(O)CCc1ccc(F)cn1 [Example 19, (4aS,5R)-4a-Ethyl-1-(4-fluorophenyl)-5-[2-(5-fluoropyridin-2-yl)ethyl]-1,4,4a,5,6,7-hexahydrocyclopenta[f]indazol-5-ol] | 6.58 | 77% | 
